This data set relates to CCRIS mutagenicity, Ames/micronucleus/aberration tests. Nature of the data set: CCRIS mutagenicity studies.
The mark [1] stands for this setting: Test System: AMES SALMONELLA TYPHIMURIUM, Strain/Indicator: TA97A, Metabolic Activation: NONE, Method: PREINCUBATION
Where [2] appears, read: Test System: AMES SALMONELLA TYPHIMURIUM, Strain/Indicator: TA98, Metabolic Activation: NONE, Method: PREINCUBATION
Where [3] appears, read: Test System: AMES SALMONELLA TYPHIMURIUM, Strain/Indicator: TA98, Metabolic Activation: NONE, Method: STANDARD PLATE.
Where [4] appears, read: Test System: AMES SALMONELLA TYPHIMURIUM, Strain/Indicator: TA98, Metabolic Activation: RAT, LIVER, S-9, AROCLOR 1254, Method: STANDARD PLATE.
[5] abbreviates: Test System: AMES SALMONELLA TYPHIMURIUM, Strain/Indicator: TA100, Metabolic Activation: NONE, Method: STANDARD PLATE.
Where [6] appears, read: Test System: AMES SALMONELLA TYPHIMURIUM, Strain/Indicator: TA100, Metabolic Activation: RAT, LIVER, S-9, AROCLOR 1254, Method: STANDARD PLATE.
[7] abbreviates: Test System: AMES SALMONELLA TYPHIMURIUM, Strain/Indicator: TA1535, Metabolic Activation: NONE, Method: STANDARD PLATE.
Setting [8] is: Test System: AMES SALMONELLA TYPHIMURIUM, Strain/Indicator: TA1535, Metabolic Activation: RAT, LIVER, S-9, AROCLOR 1254, Method: STANDARD PLATE.

Activity calls are given as the source filed them. How the calls were made is not given here.

Consider `CC1=CC(=O)c2ccccc2C1=O`, for which the mutagenic call was “active; positive” (Test System: AMES SALMONELLA TYPHIMURIUM, Strain/Indicator: TA97, Metabolic Activation: NONE, Method: PREINCUBATION); “inactive; negative” (Test System: AMES SALMONELLA TYPHIMURIUM, Strain/Indicator: TA97, Metabolic Activation: RAT, LIVER, S-9, PHENOBARBITAL AND 5,6-BENZOFLAVONE, Method: PREINCUBATION); “inactive; negative” under setting [1]; “inactive; negative” under setting [2]; “inactive; negative” (Test System: AMES SALMONELLA TYPHIMURIUM, Strain/Indicator: TA98, Metabolic Activation: NONE, Method: SPIRAL ASSAY); “inactive; negative” under setting [3]. Also, the mutagenic call was “inactive; negative” (Test System: AMES SALMONELLA TYPHIMURIUM, Strain/Indicator: TA98, Metabolic Activation: RAT, LIVER, S-9, AROCLOR 1254, Method: SPIRAL ASSAY); “inactive; negative” under setting [4]; “active; positive” (Test System: AMES SALMONELLA TYPHIMURIUM, Strain/Indicator: TA98, Metabolic Activation: RAT, LIVER, S-9, PHENOBARBITAL AND 5,6-BENZOFLAVONE, Method: PREINCUBATION); “inactive; negative” (Test System: AMES SALMONELLA TYPHIMURIUM, Strain/Indicator: TA100, Metabolic Activation: NONE, Method: SPIRAL ASSAY); “inactive; negative” under setting [5]; “inactive; negative” (Test System: AMES SALMONELLA TYPHIMURIUM, Strain/Indicator: TA100, Metabolic Activation: RAT, LIVER, S-9, AROCLOR 1254, Method: SPIRAL ASSAY). The mutagenic call is “inactive; negative” under setting [6]; “inactive; negative” (Test System: AMES SALMONELLA TYPHIMURIUM, Strain/Indicator: TA100, Metabolic Activation: RAT, LIVER, S-9, PHENOBARBITAL AND 5,6-BENZOFLAVONE, Method: PREINCUBATION); “inactive; negative” (Test System: AMES SALMONELLA TYPHIMURIUM, Strain/Indicator: TA102, Metabolic Activation: NONE, Method: PREINCUBATION); “inactive; negative” (Test System: AMES SALMONELLA TYPHIMURIUM, Strain/Indicator: TA102, Metabolic Activation: NONE, Method: STANDARD PLATE); “inactive; negative” (Test System: AMES SALMONELLA TYPHIMURIUM, Strain/Indicator: TA102, Metabolic Activation: RAT, LIVER, S-9, PHENOBARBITAL AND 5,6-BENZOFLAVONE, Method: PREINCUBATION); “inactive; negative” (Test System: AMES SALMONELLA TYPHIMURIUM, Strain/Indicator: TA104, Metabolic Activation: RAT, LIVER, S-9, PHENOBARBITAL AND 5,6-BENZOFLAVONE, Method: PREINCUBATION). Besides, the mutagenic call (Test System: AMES SALMONELLA TYPHIMURIUM, Strain/Indicator: TA1535, Metabolic Activation: NONE, Method: PREINCUBATION) was “inactive; negative”; the mutagenic call (Test System: AMES SALMONELLA TYPHIMURIUM, Strain/Indicator: TA1535, Metabolic Activation: NONE, Method: SPIRAL ASSAY) was “inactive; negative”; the mutagenic call under setting [7] is “inactive; negative”; the mutagenic call (Test System: AMES SALMONELLA TYPHIMURIUM, Strain/Indicator: TA1535, Metabolic Activation: RAT, LIVER, S-9, AROCLOR 1254, Method: SPIRAL ASSAY) is “inactive; negative”; the mutagenic call under setting [8] was “inactive; negative”; the mutagenic call (Test System: AMES SALMONELLA TYPHIMURIUM, Strain/Indicator: TA1535, Metabolic Activation: RAT, LIVER, S-9, PHENOBARBITAL AND 5,6-BENZOFLAVONE, Method: PREINCUBATION) was “inactive; negative”. Besides, the mutagenic call is, setting by setting: (Test System: AMES SALMONELLA TYPHIMURIUM, Strain/Indicator: TA1537, Metabolic Activation: NONE, Method: PREINCUBATION) “inactive; negative”; (Test System: AMES SALMONELLA TYPHIMURIUM, Strain/Indicator: TA1537, Metabolic Activation: NONE, Method: SPIRAL ASSAY) “inactive; negative”; (Test System: AMES SALMONELLA TYPHIMURIUM, Strain/Indicator: TA1537, Metabolic Activation: NONE, Method: STANDARD PLATE) “inactive; negative”; (Test System: AMES SALMONELLA TYPHIMURIUM, Strain/Indicator: TA1537, Metabolic Activation: RAT, LIVER, S-9, AROCLOR 1254, Method: SPIRAL ASSAY) “inactive; negative”; (Test System: AMES SALMONELLA TYPHIMURIUM, Strain/Indicator: TA1537, Metabolic Activation: RAT, LIVER, S-9, AROCLOR 1254, Method: STANDARD PLATE) “inactive; negative”; (Test System: AMES SALMONELLA TYPHIMURIUM, Strain/Indicator: TA1537, Metabolic Activation: RAT, LIVER, S-9, PHENOBARBITAL AND 5,6-BENZOFLAVONE, Method: PREINCUBATION) “inactive; negative”. Also, the mutagenic call was “inactive; negative” (Test System: AMES SALMONELLA TYPHIMURIUM, Strain/Indicator: TA1538, Metabolic Activation: NONE, Method: PREINCUBATION); “inactive; negative” (Test System: AMES SALMONELLA TYPHIMURIUM, Strain/Indicator: TA1538, Metabolic Activation: RAT, LIVER, S-9, PHENOBARBITAL AND 5,6-BENZOFLAVONE, Method: PREINCUBATION); “active; positive” (Test System: AMES SALMONELLA TYPHIMURIUM, Strain/Indicator: TA2637, Metabolic Activation: NONE, Method: PREINCUBATION); “active; positive” (Test System: AMES SALMONELLA TYPHIMURIUM, Strain/Indicator: TA2637, Metabolic Activation: RAT, LIVER, S-9, PHENOBARBITAL AND 5,6-BENZOFLAVONE, Method: PREINCUBATION); “inactive; negative” (Test System: AMES SALMONELLA TYPHIMURIUM, Strain/Indicator: TA2638, Metabolic Activation: NONE, Method: STANDARD PLATE); “active; positive” (Test System: E. COLI, Strain/Indicator: IC202, Metabolic Activation: NONE, Method: STANDARD PLATE). In addition, the mutagenic call was “active; positive” (Test System: E. COLI, Strain/Indicator: IC203, Metabolic Activation: NONE, Method: STANDARD PLATE); “inactive; negative” (Test System: E. COLI, Strain/Indicator: IC5059, Metabolic Activation: NONE, Method: STANDARD PLATE); “inactive; negative” (Test System: E. COLI, Strain/Indicator: IC5064, Metabolic Activation: NONE, Method: STANDARD PLATE); “inactive; negative” (Test System: E. COLI, Strain/Indicator: IC5184, Metabolic Activation: NONE, Method: STANDARD PLATE); “inactive; negative” (Test System: E. COLI, Strain/Indicator: IC5185, Metabolic Activation: NONE, Method: STANDARD PLATE); “inactive; negative” (Test System: E. COLI, Strain/Indicator: WP2 (PKM101), Metabolic Activation: NONE, Method: STANDARD PLATE). In addition, where the note is “Test System: E. COLI, Strain/Indicator: WP2 UVRA (PKM101), Metabolic Activation: NONE, Method: STANDARD PLATE”, the mutagenic call was “inactive; negative”.
On to `OC1c2ccc3c(c2C2OC2C1O)-c1cccc2cccc-3c12` (configuration not stated), for which the mutagenic call runs as follows: under setting [1], “active; positive”; under setting [2], “active; positive”; (Test System: AMES SALMONELLA TYPHIMURIUM, Strain/Indicator: TA100, Metabolic Activation: NONE, Method: PREINCUBATION) “active; positive”.
As for `C1CCC2(CC1)CO2`, the mutagenic call under setting [5] is “inactive; negative”.
Consider `CN(C)C(=O)/C=C/c1ccc([N+](=O)[O-])o1`, for which the mutagenic call under setting [2] was “active; positive”.
Turning to `CCCCCC(O)CC(=O)CCC1CCC(O)C(OC)C1` (configuration not stated), the mutagenic call under setting [3] is “inactive; negative”; the mutagenic call under setting [4] is “inactive; negative”; the mutagenic call under setting [5] was “inactive; negative”; the mutagenic call under setting [6] is “active; positive”; the mutagenic call under setting [7] was “inactive; negative”; the mutagenic call under setting [8] is “active; positive”. In addition, the mutagenic call (Test System: AMES SALMONELLA TYPHIMURIUM, Strain/Indicator: TA1538, Metabolic Activation: NONE, Method: STANDARD PLATE) is “inactive; negative” and the mutagenic call (Test System: AMES SALMONELLA TYPHIMURIUM, Strain/Indicator: TA1538, Metabolic Activation: RAT, LIVER, S-9, AROCLOR 1254, Method: STANDARD PLATE) was “inactive; negative”.
`C/C=C1\C[C@@H](C)[C@](C)(O)C(=O)OC[C@H]2CCN3CC[C@@H](OC1=O)C23` (some centres not stated): where the note is “Test System: UDS RAT HEPATOCYTES, Strain/Indicator: THY INCORP, Metabolic Activation: NONE, Method: AUTORADIOGRAPHY”, the mutagenic call is “inactive; negative”.

Source of the values: PubChem BioAssay AID1259407 (Chemical Carcinogenesis Research Information System (CCRIS), 2018).
